In ChEMBL document CHEMBL1201862, “PubChem BioAssay data set” (2004):
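A five-concentration, 48-hour dose response in 96-well plates underlies each endpoint, interpolated linearly between surrounding concentrations. GI50 = concentration required for 50% inhibition of growth.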 The source made the active and inactive calls. Cut-off read from the data, not from the text of the source: active = GI50 up to about 1.1 µM and inactive = higher.

How the values were obtained:
Assay in all cases: NCI tumour cell line growth inhibition, 48 h
[1] = test system: 786-0
[2] = test system: A498
[3] = test system: A549
[4] = test system: ACHN
[5] = test system: BT-549
[6] = test system: CAKI-1
[7] = test system: CCRF-CEM
[8] = test system: COLO 205
[9] = test system: DLD-1
[10] = test system: DMS-273
[11] = test system: DU-145
[12] = test system: EKVX
[13] = test system: HCC 2998
[14] = test system: HCT-116
[15] = test system: HCT-15
[16] = test system: HL-60
[17] = test system: HOP-18
[18] = test system: HOP-62
[19] = test system: HOP-92
[20] = test system: HT-29
[21] = test system: Hs-578T
[22] = test system: IGROV-1
[23] = test system: K562
[24] = test system: KM-20L2
[25] = test system: KM12
[26] = test system: LOX IMVI
[27] = test system: LXFL 529
[28] = test system: M14
[29] = test system: M19-MEL
[30] = test system: MCF7
[31] = test system: MDA-MB-231
[32] = test system: MDA-MB-435
[33] = test system: MDA-N
[34] = test system: MOLT-4
[35] = test system: Malme-3M
[36] = test system: NCI-H226
[37] = test system: NCI-H23
[38] = test system: NCI-H460
[39] = test system: NCI-H522
[40] = test system: NCI/ADR-RES
[41] = test system: OVCAR-3
[42] = test system: OVCAR-4
[43] = test system: OVCAR-5
[44] = test system: OVCAR-8
[45] = test system: PC-3
[46] = test system: RPMI-8226
[47] = test system: RXF 393
[48] = test system: RXF 631
[49] = test system: SF-268
[50] = test system: SF-295
[51] = test system: SF-539
[52] = test system: SK-MEL-28
[53] = test system: SK-MEL-2
[54] = test system: SK-MEL-5
[55] = test system: SK-OV-3
[56] = test system: SN12C
[57] = test system: SNB-19
[58] = test system: SNB-75
[59] = test system: SNB-78
[60] = test system: SR
[61] = test system: SW-620
[62] = test system: TK-10
[63] = test system: U-251
[64] = test system: UACC-257
[65] = test system: UACC-62
[66] = test system: UO-31
[67] = test system: XF498
[68] = test system: DMS-114

**Q.** For `O=C1/C(=C/c2ccc(Cl)c(Cl)c2)CNC/C1=C\c1ccc(Cl)c(Cl)c1`, which GI50 [1] is on record?
**A.** 2.39 µM (inactive)

**Q.** And the GI50 [2]?
**A.** 18.3 µM (inactive)

**Q.** And the GI50 [3]?
**A.** 14.8 µM (inactive)

**Q.** And the GI50 [4]?
**A.** 18.1 µM (inactive)

**Q.** What about the GI50 [5] of the same compound?
**A.** 27.9 µM (inactive)

**Q.** What about the GI50 [6] of the same compound?
**A.** 4.09 µM (inactive)

**Q.** And the GI50 [7]?
**A.** 2.29 µM (inactive)

**Q.** And the GI50 [8]?
**A.** 5.27 µM (inactive)

**Q.** And the GI50 [9]?
**A.** 1.89 µM (inactive)

**Q.** What about the GI50 [10] of the same compound?
**A.** 5.73 µM (inactive)

**Q.** And the GI50 [11]?
**A.** 49 µM (inactive)

**Q.** What about the GI50 [12] of the same compound?
**A.** 6.17 µM (inactive)

**Q.** And the GI50 [13]?
**A.** 9.66 µM (inactive)

**Q.** And the GI50 [14]?
**A.** 2.57 µM (inactive)

**Q.** And the GI50 [15]?
**A.** 2.94 µM

**Q.** And the GI50 [16]?
**A.** 8.39 µM (inactive)

**Q.** And the GI50 [17]?
**A.** 33.7 µM (inactive)

**Q.** What about the GI50 [18] of the same compound?
**A.** 14.5 µM (inactive)

**Q.** And the GI50 [19]?
**A.** 22 µM (inactive)

**Q.** What about the GI50 [20] of the same compound?
**A.** 5.35 µM (inactive)

**Q.** And the GI50 [21]?
**A.** 3.21 µM (inactive)

**Q.** And the GI50 [22]?
**A.** 7.6 µM (inactive)

**Q.** What about the GI50 [23] of the same compound?
**A.** 3.1 µM (inactive)

**Q.** What about the GI50 [24] of the same compound?
**A.** 7.4 µM (inactive)

**Q.** And the GI50 [25]?
**A.** 6.76 µM (inactive)

**Q.** And the GI50 [26]?
**A.** 5.07 µM (inactive)

**Q.** And the GI50 [27]?
**A.** 3.97 µM (inactive)

**Q.** And the GI50 [28]?
**A.** 15.8 µM (inactive)

**Q.** What about the GI50 [29] of the same compound?
**A.** 22.3 µM (inactive)

**Q.** And the GI50 [30]?
**A.** 7.64 µM (inactive)

**Q.** And the GI50 [31]?
**A.** 3.14 µM (inactive)

**Q.** And the GI50 [32]?
**A.** 20.9 µM (inactive)

**Q.** And the GI50 [33]?
**A.** 20.4 µM (inactive)

**Q.** What about the GI50 [34] of the same compound?
**A.** 5.4 µM (inactive)

**Q.** And the GI50 [35]?
**A.** 28.1 µM (inactive)

**Q.** And the GI50 [36]?
**A.** 21.9 µM (inactive)

**Q.** And the GI50 [37]?
**A.** 8.51 µM (inactive)

**Q.** What about the GI50 [38] of the same compound?
**A.** 10.3 µM (inactive)

**Q.** And the GI50 [39]?
**A.** 11 µM (inactive)

**Q.** What about the GI50 [40] of the same compound?
**A.** 3.66 µM (inactive)

**Q.** And the GI50 [41]?
**A.** 3.89 µM (inactive)

**Q.** And the GI50 [42]?
**A.** 2.52 µM (inactive)

**Q.** And the GI50 [43]?
**A.** 18.3 µM (inactive)

**Q.** And the GI50 [44]?
**A.** 3.92 µM (inactive)

**Q.** What about the GI50 [45] of the same compound?
**A.** 13.9 µM (inactive)

**Q.** And the GI50 [46]?
**A.** 3.75 µM (inactive)

**Q.** What about the GI50 [47] of the same compound?
**A.** 14 µM (inactive)

**Q.** And the GI50 [48]?
**A.** 36.3 µM (inactive)

**Q.** And the GI50 [49]?
**A.** 3.95 µM (inactive)

**Q.** What about the GI50 [50] of the same compound?
**A.** 9.2 µM (inactive)

**Q.** What about the GI50 [51] of the same compound?
**A.** 7.87 µM (inactive)

**Q.** What about the GI50 [52] of the same compound?
**A.** 26.3 µM (inactive)

**Q.** And the GI50 [53]?
**A.** 23.3 µM (inactive)

**Q.** And the GI50 [54]?
**A.** 36.5 µM (inactive)

**Q.** And the GI50 [55]?
**A.** 40.7 µM (inactive)

**Q.** What about the GI50 [56] of the same compound?
**A.** 5.08 µM (inactive)

**Q.** And the GI50 [57]?
**A.** 1.46 µM (inactive)

**Q.** What about the GI50 [58] of the same compound?
**A.** 10.8 µM (inactive)

**Q.** What about the GI50 [59] of the same compound?
**A.** > 57.4 µM (inactive)

**Q.** And the GI50 [60]?
**A.** 3.96 µM (inactive)

**Q.** And the GI50 [61]?
**A.** 1.38 µM (inactive)

**Q.** And the GI50 [62]?
**A.** 31 µM (inactive)

**Q.** And the GI50 [63]?
**A.** 5.11 µM (inactive)

**Q.** What about the GI50 [64] of the same compound?
**A.** 41.2 µM (inactive)

**Q.** What about the GI50 [65] of the same compound?
**A.** 14 µM (inactive)

**Q.** And the GI50 [66]?
**A.** 17.5 µM (inactive)

**Q.** What about the GI50 [67] of the same compound?
**A.** 19.5 µM (inactive)

**Q.** With `Cc1cccc(C)c1NC(=O)CCC(=O)/N=C(\N)NC#N` as the compound, how does the GI50 [1] read?
**A.** > 100 µM (inactive)

**Q.** What about the GI50 [2] of the same compound?
**A.** > 100 µM (inactive)

**Q.** And the GI50 [3]?
**A.** > 100 µM (inactive)

**Q.** And the GI50 [4]?
**A.** > 100 µM (inactive)

**Q.** What about the GI50 [6] of the same compound?
**A.** > 100 µM (inactive)

**Q.** And the GI50 [7]?
**A.** > 100 µM (inactive)

**Q.** And the GI50 [8]?
**A.** > 100 µM (inactive)

**Q.** What about the GI50 [9] of the same compound?
**A.** > 100 µM (inactive)

**Q.** And the GI50 [68]?
**A.** > 100 µM (inactive)

**Q.** What about the GI50 [12] of the same compound?
**A.** > 100 µM (inactive)

**Q.** And the GI50 [13]?
**A.** > 100 µM (inactive)

**Q.** And the GI50 [14]?
**A.** > 100 µM (inactive)

**Q.** What about the GI50 [15] of the same compound?
**A.** > 100 µM

**Q.** And the GI50 [16]?
**A.** > 100 µM (inactive)

**Q.** And the GI50 [17]?
**A.** > 100 µM (inactive)

**Q.** What about the GI50 [18] of the same compound?
**A.** > 100 µM (inactive)

**Q.** And the GI50 [19]?
**A.** > 100 µM (inactive)

**Q.** What about the GI50 [20] of the same compound?
**A.** > 100 µM (inactive)

**Q.** What about the GI50 [22] of the same compound?
**A.** > 100 µM (inactive)

**Q.** And the GI50 [23]?
**A.** > 100 µM (inactive)

**Q.** And the GI50 [24]?
**A.** > 100 µM (inactive)

**Q.** And the GI50 [25]?
**A.** > 100 µM (inactive)

**Q.** What about the GI50 [26] of the same compound?
**A.** > 100 µM (inactive)

**Q.** And the GI50 [27]?
**A.** > 100 µM (inactive)

**Q.** And the GI50 [28]?
**A.** > 100 µM (inactive)

**Q.** What about the GI50 [29] of the same compound?
**A.** > 100 µM (inactive)

**Q.** What about the GI50 [34] of the same compound?
**A.** > 100 µM (inactive)

**Q.** What about the GI50 [35] of the same compound?
**A.** > 100 µM (inactive)

**Q.** What about the GI50 [36] of the same compound?
**A.** > 100 µM (inactive)

**Q.** What about the GI50 [37] of the same compound?
**A.** > 100 µM (inactive)

**Q.** What about the GI50 [38] of the same compound?
**A.** > 100 µM (inactive)

**Q.** What about the GI50 [39] of the same compound?
**A.** > 100 µM (inactive)

**Q.** And the GI50 [41]?
**A.** > 100 µM (inactive)

**Q.** What about the GI50 [42] of the same compound?
**A.** > 100 µM (inactive)

**Q.** What about the GI50 [43] of the same compound?
**A.** > 100 µM (inactive)

**Q.** And the GI50 [44]?
**A.** > 100 µM (inactive)

**Q.** What about the GI50 [46] of the same compound?
**A.** > 100 µM (inactive)

**Q.** What about the GI50 [47] of the same compound?
**A.** > 100 µM (inactive)

**Q.** And the GI50 [48]?
**A.** > 100 µM (inactive)

**Q.** And the GI50 [49]?
**A.** > 100 µM (inactive)

**Q.** And the GI50 [50]?
**A.** > 100 µM (inactive)

**Q.** What about the GI50 [51] of the same compound?
**A.** > 100 µM (inactive)

**Q.** And the GI50 [52]?
**A.** 77.8 µM (inactive)

**Q.** And the GI50 [54]?
**A.** > 100 µM (inactive)

**Q.** And the GI50 [55]?
**A.** > 100 µM (inactive)

**Q.** What about the GI50 [56] of the same compound?
**A.** > 100 µM (inactive)

**Q.** What about the GI50 [57] of the same compound?
**A.** > 100 µM (inactive)

**Q.** And the GI50 [58]?
**A.** > 100 µM (inactive)

**Q.** What about the GI50 [60] of the same compound?
**A.** > 100 µM (inactive)

**Q.** What about the GI50 [61] of the same compound?
**A.** > 100 µM (inactive)

**Q.** And the GI50 [62]?
**A.** > 100 µM (inactive)

**Q.** What about the GI50 [63] of the same compound?
**A.** > 100 µM (inactive)

**Q.** What about the GI50 [64] of the same compound?
**A.** > 100 µM (inactive)

**Q.** What about the GI50 [65] of the same compound?
**A.** > 100 µM (inactive)

**Q.** And the GI50 [66]?
**A.** > 100 µM (inactive)

**Q.** What about the GI50 [67] of the same compound?
**A.** > 100 µM (inactive)
